Consider two compounds from US11744844B2, “Selective estrogen receptor degraders” (Eli Lilly and Company, priority 2021, dated 2023).

Counter-ions that a name gives are not always drawn.

The assay has as its target T1, ERα (Homo sapiens, UniProt P03372).
T1 construct: measure the degradation of ERα by a test compound in an ERα positive breast cancer cell line such as MCF7; host or cells: MCF7
T1 sequence (P03372 1-595): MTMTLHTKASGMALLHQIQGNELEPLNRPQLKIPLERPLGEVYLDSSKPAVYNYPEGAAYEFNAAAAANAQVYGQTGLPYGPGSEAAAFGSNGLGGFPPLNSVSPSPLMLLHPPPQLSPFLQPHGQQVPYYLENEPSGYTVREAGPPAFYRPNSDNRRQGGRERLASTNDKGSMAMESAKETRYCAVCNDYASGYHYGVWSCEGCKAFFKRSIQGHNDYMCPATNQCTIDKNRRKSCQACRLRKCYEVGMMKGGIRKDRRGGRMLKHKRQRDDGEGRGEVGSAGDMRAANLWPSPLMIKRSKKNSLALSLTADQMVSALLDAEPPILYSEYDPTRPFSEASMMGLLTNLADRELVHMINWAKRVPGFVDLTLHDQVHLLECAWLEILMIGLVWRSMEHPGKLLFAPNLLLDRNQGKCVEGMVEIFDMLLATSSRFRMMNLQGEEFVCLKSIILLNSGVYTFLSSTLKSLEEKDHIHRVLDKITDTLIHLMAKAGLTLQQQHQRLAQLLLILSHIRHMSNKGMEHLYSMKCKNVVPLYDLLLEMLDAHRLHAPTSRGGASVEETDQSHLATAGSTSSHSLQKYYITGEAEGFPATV
Description: PRα induction assay in MCF7 cells (ERα agonism). It is filed as cell-based. As to conditions: MCF7 breast cancer cells, 24 hours, up to 2 μM. As to the method:
The purpose of the following PRα induction assay is to determine whether a test compound has agonistic activity against ERα receptor (an agonist would be expected to activate the receptor).
Culture MCF7 (purchased from ATCC HTB-22) in DMEM media supplemented with 10% FBS, 0.01 mg/mL human insulin 1 and 1% penicillin/streptomycin antibiotics and plate the cells (prior to becoming 70% confluent) in 384-well flat-bottom plates at a density of 4,000 cells per well in 20 μL volume in DMEM phenol red free media containing 10% FBS (charcoal stripped). Incubate the cells overnight in a cell culture incubator (5% CO2, 95% relative humidity at 37° C.) and allow the cells to attach to the plate. The following day dose the cells with test compound. Use an Echo 555 acoustic dispenser to prepare compound serial dilutions (1:3) in a range from 6 μM to 0.0003 μM. […]
The following day wash cells with PBS 0.05% TWEEN® 20 (2×20 μL) and incubate with secondary antibody (20 μL/well) (1:1000 dilution, Goat anti-rabbit IgM ALEXA FLUOR™ 488) in PBS 1% BSA for 105 minutes at room temperature. […] Scan plates with ACUMEN EXPLORER™ (Laser-scanning fluorescence microplate cytometer manufactured by TTP LABTECH LTD) to measure PRα. […]

With `O=S(=O)(O)Oc1ccc2c3c(cnc2c1)-c1ccc(C(F)(F)F)cc1O[C@@H]3c1ccc(OCCN2CC(CF)C2)cc1` [Example 1, [(5R)-5-[4-[2-[3-(Fluoromethyl)azetidin-1-yl]ethoxy]phenyl]-8-(trifluoromethyl)-5H-chromeno[4,3-c]quinolin-2-yl]hydrogen sulfate], the “agonistic activity (PRα induction)” value is given as “no significant agonistic activity”.
In the case of `O=C(O)[C@H]1O[C@@H](Oc2ccc3c4c(cnc3c2)-c2ccc(C(F)(F)F)cc2O[C@@H]4c2ccc(OCCN3CC(CF)C3)cc2)[C@H](O)[C@@H](O)[C@@H]1O` [Example 2, (2S,3S,4S,5R,6S)-6-[[(5R)-5-[4-[2-[3-(Fluoromethyl)azetidin-1-yl]ethoxy]phenyl]-8-(trifluoromethyl)-5H-chromeno[4,3-c]quinolin-2-yl]oxy]-3,4,5-trihydroxy-tetrahydropyran-2-carboxylic acid], the “agonistic activity (PRα induction)” value is reported as “no significant agonistic activity”.
